Where “and” joins values, the source holds several entries; their conditions need not be identical. Equal entries are not always repeated. Where two headings read alike, the source gives them in different places.
What was measured:
DIGSA = assay type: in vivo, Digitaria sanguinalis
Experimental: Seeds or nutlets of the desired test plant species were planted in a soil matrix prepared by mixing a loam or sandy loam soil (e.g., 28.6 percent silt, 18.8 percent clay, and 52.6 percent sand, with a pH of about 5.8 and an organic matter content of about 1.8 percent) and calcareous grit in an 80 to 20 ratio. The soil matrix was contained in plastic pots with a volume of 1 quart and a surface area of 83.6 square centimeters (cm^2). […] The plants were grown for 8-22 days in a greenhouse with an approximate 14 hour (h) photoperiod which was maintained at about 29° C. during the day and 26° C. during the night. Nutrients (Peters Excel® 15-5-15 5-Ca 2-Mg and iron chelate) were applied in the irrigation solution as needed and water was added on a regular basis. Supplemental lighting was provided with overhead metal halide 1000-Watt lamps as necessary. The plants were employed for testing when they reached the first through fourth true leaf stage.
Treatments consisted of the acid or esters of 4-amino-3-chloro-6-(4-chloro-2-fluoro-3-methoxyphenyl)-5-fluoropyridine-2-carboxylic acid (Compound A), each formulated as an SC (suspension concentrate), and various insecticidal components alone and in combination. Forms of compound A were applied on an acid equivalent basis.
For treatments comprised of formulated compounds, measured amounts of compounds were placed individually in 25 mL glass vials and diluted in a volume of 1.25% volume per volume (v/v) Agri-Dex® crop oil concentrate to obtain 12× stock solutions. […] Application solutions were prepared by adding an appropriate amount of each stock solution (e.g., 1 mL) and diluted to the appropriate final concentrations with the addition of […] of an aqueous mixture of 1.25% (v/v) crop oil concentrate so that the final spray solutions contained 1.25+/−0.05% (v/v) crop oil concentrate.
As required, additional water and/or 97:3 v/v acetone/DMSO was added to individual application solutions so that the final acetone and DMSO concentrations of the application solutions being compared were 8.1% and 0.25%, respectively.
All stock solutions and applications solutions were visually inspected for compound compatibility prior to application. Spray solutions were applied to the plant material with an overhead Mandel track sprayer equipped with 8002E nozzles calibrated to deliver 187 L/ha over an application area of 0.503 square meters (m^2) at a spray height of 18 to 20 inches (46 to 50 cm) above average plant canopy height. Control plants were sprayed in the same manner with the solvent blank.
(§1) The treated plants and control plants were placed in a greenhouse as described above and watered by sub-irrigation to prevent wash-off of the test compounds. After approximately 3 weeks, the condition of the test plants as compared to that of the untreated plants was determined visually and scored on a scale of 0 to 100 percent where 0 corresponds to no injury or growth inhibition and 100 corresponds to complete kill.
Colby's equation was used to determine the herbicidal effects expected from the mixtures (Colby, S. R. Calculation of the synergistic and antagonistic response of herbicide combinations. Weeds 1967, 15, 20-22.).
The following equation was used to calculate the expected activity of mixtures containing two active ingredients, A and B: Expected=A+B−(A×B/100)

CYPRO = assay: In-water applied weed control, transplanted paddy rice (greenhouse); assay type: in vivo, Cyperus rotundus
Experimental: (§2) Weed seeds or nutlets of the desired test plant species were planted in puddled soil (mud) prepared by mixing a shredded, non-sterilized mineral soil (50.5 percent silt, 25.5 percent clay, and 24 percent sand, with a pH of about 7.6 and an organic matter content of about 2.9 percent) and water at a 1:1 volumetric ratio. The prepared mud was dispensed in 365 mL aliquots into 16-ounce (oz.) non-perforated plastic pots with a surface area of 86.59 square centimeters (cm^2) leaving a headspace of 3 centimeters (cm) in each pot. Rice seeds were planted in Sun Gro MetroMix® 306 planting mixture, which typically has a pH of 6.0 to 6.8 and an organic matter content of about 30 percent, in plastic plug trays. Seedlings at the second or third leaf stage of growth were transplanted into 860 mL of mud contained in 32-oz. non-perforated plastic pots with a surface area of 86.59 cm^2 4 days prior to herbicide application. The paddy was created by filling the headspace of the pots with 2.5 to 3 cm of water. When required to ensure good germination and healthy plants, a fungicide treatment and/or other chemical or physical treatment was applied. The plants were grown for 4-22 days in a greenhouse with an approximate 14 h photoperiod which was maintained at about 29° C. during the day and about 26° C. during the night. Nutrients were added as Osmocote® (17:6:10, N:P:K+minor nutrients) at 2 grams (g) per 16-oz. pot and 4 g per 32-oz. pot. Water was added on a regular basis to maintain the paddy flood, and supplemental lighting was provided with overhead metal halide 1000-Watt lamps as necessary. The plants were employed for testing when they reached the first through fourth true leaf stage.
Treatments consisted of the acid or esters of 4-amino-3-chloro-5-fluoro-6-(4-chloro-2-fluoro-3-methoxy-phenyl)pyridine-2-carboxylic acid (compound A) each formulated as an SC (suspension concentrate) and various herbicidal components alone and in combination. Forms of compound A were applied on an acid equivalent basis.
Other […] components were applied on an active ingredient basis and consisted of etofenprox (technical grade material) and sulfoxaflor formulated as Sulfoxaflor WG.
(§3) Treatment requirements for each compound or herbicidal component were calculated based upon the rates being tested, the concentration of active ingredient or acid equivalent in the formulation, an application volume of 2 mL per component per pot, and an application area of 86.59 cm^2 per pot.
For formulated compounds, a measured amount was placed in an individual 100 or 200 mL glass vial and was dissolved in a volume of 1.25% (v/v) AgriDex® crop oil concentrate to obtain application solutions.
For technical grade compounds, a weighed amount was placed in an individual 100 to 200 mL glass vial and was dissolved in a volume of acetone to obtain concentrated stock solutions.
Applications were made by injecting with a pipetter appropriate amounts of the application solutions, individually and sequentially, into the aqueous layer of the paddy. Control plants were treated in the same manner with the solvent blank. Applications were made so that all treated plant material received the same concentrations of acetone and crop oil concentrate.
as §1, with “and water was added as needed” for “and watered by sub-irrigation”, “to maintain a paddy flood.” for “to prevent wash-off of the test compounds.”, “3 weeks” for “3 weeks,”, “compared with” for “compared to”
Colby's equation was used to determine the herbicidal effects expected from the mixtures (Colby, S. R. Calculation of the synergistic and antagonistic response of herbicide combinations. Weeds 1967, 15, 20-22.). […]

ECHCG = assay: as above; assay type: in vivo, Echinochloa crus-galli; conditions: 8 g ae/ha alone
Experimental: as §2, with “stage. […]” for “stage.”
as §3
For formulated compounds, a measured amount was placed in an individual 100 or 200 mL glass vial and was dissolved in a volume of 1.25% (v/v) AgriDex® crop oil concentrate to obtain application solutions. […]
The treated plants and control plants were placed in a greenhouse as described above and water was added as needed to maintain a paddy flood. After approximately 3 weeks the condition of the test plants as compared with that of the untreated plants was determined visually and scored on a scale of 0 to 100 percent where 0 corresponds to no injury or growth inhibition and 100 corresponds to complete kill. […]

## COc1c(Cl)ccc(-c2nc(C(=O)O)c(Cl)c(N)c2F)c1F [Compound A Acid, 4-amino-3-chloro-6-(4-chloro-2-fluoro-3-methoxyphenyl)-5-fluoropyridine-2-carboxylic acid]
DIGSA; 4.38 g ae/ha alone
  Visual Weed Control (%) - 20 DAA DIGSA Obs: 40%
DIGSA; 5.3 g ae/ha alone
  Visual Weed Control (%) - 20 DAA DIGSA Obs: 15%
DIGSA; 10.6 g ae/ha alone
  Visual Weed Control (%) - 20 DAA DIGSA Obs: 35%
DIGSA; 21.2 g ae/ha alone
  Visual Weed Control (%) - 20 DAA DIGSA Obs: 50%

## COc1c(Cl)ccc(-c2nc(C(=O)OCc3ccccc3)c(Cl)c(N)c2F)c1F [Compound A Benzyl Ester]
DIGSA; 4.38 g ae/ha alone
  Visual Weed Control (%) - 20 DAA DIGSA Obs: 40% and 25%
DIGSA; 8 g ae/ha alone
  Visual Weed Control (%) - 20 DAA DIGSA Obs: 20%
  Visual Weed Control (%) - 21 DAA DIGSA Obs: 10%
  Visual Weed Control (%) - 22 DAA DIGSA Obs: 13%
  Visual Weed Control (%) - 19 DAA DIGSA Obs: 30%
DIGSA; 16 g ae/ha alone
  Visual Weed Control (%) - 20 DAA DIGSA Obs: 23% and 30%
  Visual Weed Control (%) - 22 DAA DIGSA Obs: 18%
  Visual Weed Control (%) - 19 DAA DIGSA Obs: 35%
DIGSA; 17.5 g ae/ha alone
  Visual Weed Control (%) - 20 DAA DIGSA Obs: 15%
DIGSA; 32 g ae/ha alone
  Visual Weed Control (%) - 19 DAA DIGSA Obs: 40%
  Visual Weed Control (%) - 20 DAA DIGSA Obs: 30% and 40%
  Visual Weed Control (%) - 22 DAA DIGSA Obs: 28%
DIGSA; 22 DAA, 8 g ae/ha alone
  Visual Weed Control (%) - 22 DAA DIGSA Obs: 10% and 13%
DIGSA; 22 DAA, 8 g ae/ha alone, second part of Table 18
  Visual Weed Control (%) - 22 DAA DIGSA Obs: 13%
DIGSA; 22 DAA, 16 g ae/ha alone
  Visual Weed Control (%) - 22 DAA DIGSA Obs: 25% and 18% and 20%
DIGSA; 22 DAA, 16 g ae/ha alone, second part of Table 18
  Visual Weed Control (%) - 22 DAA DIGSA Obs: 18%
DIGSA; 22 DAA, 32 g ae/ha alone
  Visual Weed Control (%) - 22 DAA DIGSA Obs: 40% and 28% and 25%
DIGSA; 22 DAA, 32 g ae/ha alone, second part of Table 18
  Visual Weed Control (%) - 22 DAA DIGSA Obs: 28%
CYPRO; 8 g ae/ha alone
  Visual Weed Control (%) - 19 DAA CYPRO Obs: 20%
CYPRO; 16 g ae/ha alone
  Visual Weed Control (%) - 19 DAA CYPRO Obs: 88%
CYPRO; 32 g ae/ha alone
  Visual Weed Control (%) - 19 DAA CYPRO Obs: 87%
CYPRO; 21 DAA, 8 g ae/ha alone
  Visual Weed Control (%) - 21 DAA CYPRO Obs: 40%
ECHCG
  Visual Weed Control (%) - 21 DAA ECHCG Obs: 40%

## CC(c1ccc(C(F)(F)F)nc1)S(C)(=O)=NC#N (stereo not drawn) [Sulfoxaflor, N-[methyloxido[1-[6-(trifluoromethyl)-3-pyridinyl]ethyl]-λ^4-sulfanylidene]cyanamide]
CYPRO; 37.5 g ai/ha alone
  Visual Weed Control (%) - 19 DAA CYPRO Obs: 0%
CYPRO; 75 g ai/ha alone
  Visual Weed Control (%) - 19 DAA CYPRO Obs: 0%
CYPRO; 150 g ai/ha alone
  Visual Weed Control (%) - 19 DAA CYPRO Obs: 0%
